The term IC50 denotes the concentration that gives 50% inhibition.

For the first assay, the system named is IL-1β production in PMA-differentiated THP-1 cells. Nature of the assay: IL-1β production in PMA-differentiated THP-1 cells stimulated with gramicidin (hTHP-1 assay containing 2% fetal bovine serum). To be noted: Homo sapiens, THP-1, Table B1; 2% fetal bovine serum; cells printed as numeric bound; read-out: hTHP-1 IC50 (Average IC50 of compounds in hTHP-1 assay). The assay is classed as cell-based, human. The method, boiled down: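 IL-1β release was read by HTRF on supernatants of 50,000 PMA-primed (20 ng/ml, 16-18 h) THP-1 cells/well in 2% FBS medium. Cells saw compound for 1 h (11-point titration from 100 μM, 0.37% DMSO) before a 2 h gramicidin (5 μM) challenge.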
As for `CC(C)c1cc(COC2CCCC2)cc(C(C)C)c1CC(=O)N=S(N)(=O)c1cc(C(C)(C)O)n(-c2ccc(F)cc2)n1` (single isomer, unassigned) [Example 284, (S) or (R)-N-(amino(1-(4-fluorophenyl)-5-(2-hydroxypropan-2-yl)-1H-pyrazol-3-yl)(oxo)-λ^6-sulfaneylidene)-2-(4-((cyclopentyloxy)methyl)-2,6-diisopropylphenyl) acetamide], the half-maximal inhibitory concentration (IC50) is greater than 30 µM.
The same measure, in the same setting: next, `CC(C)c1cc2c(c(C(C)C)c1CC(=O)N=S(N)(=O)c1sc(CN(C)C)cc1F)COC2` (single isomer, unassigned) [Example 308, (S) or (R)-N-(amino(5-((dimethylamino)methyl)-3-fluorothiophen-2-yl)(oxo)-λ^6-sulfaneylidene)-2-(4,6-diisopropyl-1,3-dihydroisobenzofuran-5-yl)acetamide]: greater than 30 µM.

The assay is the same for the next values; noted with them: Homo sapiens, THP-1, Table B1; 2% fetal bovine serum; class symbols; read-out: hTHP-1 IC50 (Average IC50 of compounds in hTHP-1 assay).
For `CC(C)c1cc(-c2ccc3ccccc3c2)cc(C(C)C)c1CC(=O)N=[S@](=O)(NC#N)c1cnc(C(C)(C)O)s1` [Example 345, (S)-N-(cyanamido(2-(2-hydroxypropan-2-yl)thiazol-5-yl)(oxo)-λ^6-sulfaneylidene)-2-(2,6-diisopropyl-4-(naphthalen-2-yl)phenyl)acetamide], the 50% inhibitory concentration (IC50) lay within 5 to 30 µM.
As for `CC(C)c1cc(-c2ccc3c(c2)CCOC3)cc(C(C)C)c1CC(=O)N=S(N)(=O)c1sc(C(C)(C)O)nc1CO` (stereo not drawn) [Example 137, N-(amino(4-(hydroxymethyl)-2-(2-hydroxypropan-2-yl)thiazol-5-yl)(oxo)-λ^6-sulfaneylidene)-2-(4-(isochroman-6-yl)-2,6-diisopropylphenyl)acetamide], the IC50 lay within 0.2 to 1 µM.
Still for that read-out and setting: next, `CC(C)c1cc(C#N)c(F)c(C(C)C)c1CC(=O)N=S(N)(=O)c1cnc(C(C)(O)CO)s1` (stereo not drawn) [Example 238, N-(amino(2-(1,2-dihydroxypropan-2-yl)thiazol-5-yl)(oxo)-λ^6-sulfaneylidene)-2-(4-cyano-3-fluoro-2,6-diisopropylphenyl) acetamide]: 1 to 5 µM; `COCc1cc(C(C)C)c(CC(=O)N=S(N)(=O)c2ncc(C(C)(C)O)s2)c(C(C)C)n1` (stereo not drawn) [Example 236, N-(amino(5-(2-hydroxypropan-2-yl)thiazol-2-yl)(oxo)-λ^6-sulfaneylidene)-2-(2,4-diisopropyl-6-(methoxymethyl)pyridin-3-yl)acetamide]: 1 to 5 µM.
On the same count and under the same terms, next, `CC(C)c1cc2c(cnn2C)c(C(C)C)c1CC(=O)N=S(N)(=O)c1cnc(C(C)(C)O)s1` (stereo not drawn) [Example 262, N-(amino(2-(2-hydroxypropan-2-yl)thiazol-5-yl)(oxo)-λ^6-sulfaneylidene)-2-(4,6-diisopropyl-1-methyl-1H-indazol-5-yl)acetamide]: 5 to 30 µM; `CC(C)c1ccc(F)c(C(C)C)c1CC(=O)N=[S@@](N)(=O)c1cc(C(C)(C)O)cs1` [compound 88, (R)-N-(amino(4-(2-hydroxypropan-2-yl)thiophen-2-yl)(oxo)-λ^6-sulfanylidene)-2-(3-fluoro-2,6-diisopropylphenyl)acetamide]: 0.2 to 1 µM.
The same measure, in the same setting: then `CCc1c2c(cc(C(C)C)c1CC(=O)N=S(N)(=O)c1cc(C(C)(C)O)cs1)COC2` (stereo not drawn) [Example 244, N-(amino (4-(2-hydroxypropan-2-yl)thiophen-2-yl)(oxo)-λ^6-sulfaneylidene)-2-(4-ethyl-6-isopropyl-1,3-dihydroisobenzofuran-5-yl) acetamide], with 1 to 5 µM.
As to `CC(C)c1cc2c(cnn2C)c(C(C)C)c1CC(=O)N=[S@@](N)(=O)c1cnc(C(C)(C)O)s1` [Example 232, (R)-N-(amino(2-(2-hydroxypropan-2-yl)thiazol-5-yl)(oxo)-λ^6-sulfaneylidene)-2-(4,6-diisopropyl-1-methyl-1H-indazol-5-yl)acetamide], the IC50 was 5 to 30 µM.
Regarding `CC(C)c1cc(COC2CCCC2)cc(C(C)C)c1CC(=O)N=S(N)(=O)c1cnc(C(C)(C)O)s1` (single isomer, unassigned) [Example 287, (R) or (S)-N-(amino(2-(2-hydroxypropan-2-yl)thiazol-5-yl)(oxo)-λ^6-sulfaneylidene)-2-(4-((cyclopentyloxy)methyl)-2,6-diisopropylphenyl) acetamide], the IC50 was 0.04 to 0.2 µM.
On the same count and under the same terms, then `CC(C)c1cc2c(c(C(C)C)c1CC(=O)N=S(N)(=O)c1sc(CN(C)C)cc1F)COC2` (single isomer, unassigned) [Example 307, (R) or (S)-N-(amino(5-((dimethylamino)methyl)-3-fluorothiophen-2-yl)(oxo)-λ^6-sulfaneylidene)-2-(4,6-diisopropyl-1,3-dihydroisobenzofuran-5-yl)acetamide], with 0.2 to 1 µM.

The same assay, now with this note: Homo sapiens, THP-1, Table B2; 2% fetal bovine serum; class symbols; read-out: hTHP-1 IC50 (Average IC50 of compounds in hTHP-1 assay).
Regarding `CC(C)c1cc(C#N)cc(C(C)C)c1CC(=O)N=[S@@](=O)(NC#N)c1nc(CO)c(C(C)(C)O)s1` [Example 376, (R)-N-(cyanamido(4-(hydroxymethyl)-5-(2-hydroxypropan-2-yl)thiazol-2-yl)(oxo)-λ^6-sulfaneylidene)-2-(4-cyano-2,6-diisopropylphenyl)acetamide], the IC50 fell in the range of 0.2 to 1 µM.
Turning to `CC(C)c1cc2c(c(C(C)C)c1CC(=O)N=S(N)(=O)c1ccn(CCO)n1)OC(F)(F)O2` (stereo not drawn) [Example 347, N-(amino(1-(2-hydroxyethyl)-1H-pyrazol-3-yl)(oxo)-λ^6-sulfaneylidene)-2-(2,2-difluoro-4,6-diisopropylbenzo[d][1,3]dioxol-5-yl)acetamide], the concentration for half-maximal inhibition (IC50) fell in the range of 1 to 5 µM.

Still in this assay, the particulars now being: Table B1; 2% fetal bovine serum; class symbols; read-out: hTHP-1 IC50 (Average IC50 of compounds in hTHP-1 assay).
For `CC(C)c1ncc(F)c(C(C)C)c1CC(=O)N=S(N)(=O)c1sc(C(C)(C)O)cc1F` (single isomer, unassigned) [Example 211, N-(amino(3-fluoro-5-(2-hydroxypropan-2-yl)thiophen-2-yl)(oxo)-λ^6-sulfaneylidene)-2-(5-fluoro-2,4-diisopropylpyridin-3-yl)acetamide], the IC50 was 0.2 to 1 µM.
Take `CCc1c2c(cc(C(C)C)c1CC(=O)N=S(N)(=O)c1cc(C(C)(C)O)cs1)COC2` (single isomer, unassigned) [Example 293, (R) or (S)-N-(amino(4-(2-hydroxypropan-2-yl)thiophen-2-yl)(oxo)-λ^6-sulfaneylidene)-2-(4-ethyl-6-isopropyl-1,3-dihydroisobenzofuran-5-yl)acetamide]: the IC50 lay in the range of 0.2 to 1 µM.
The same measure, in the same setting: then `COCc1cc(C(C)C)c(CC(=O)N=S(N)(=O)c2sc(C(C)(C)O)nc2CO)c(C(C)C)c1` (single isomer, unassigned) [Example 68, (S)- or (R)-2-(2,6-diisopropyl-4-(methoxymethyl)phenyl)-N-(4-(hydroxymethyl)-2-(2-hydroxypropan-2-yl)thiazol-5-ylsulfonimidoyl)acetamide], with 0.2 to 1 µM; and `CC(C)c1cc2c(c(C(C)C)c1CC(=O)N=S(N)(=O)c1cc(C(C)(C)O)cs1)COC2` (single isomer, unassigned) [Example 217, (S) or (R)-N-(amino (4-(2-hydroxypropan-2-yl)thiophen-2-yl)(oxo)-λ^6-sulfaneylidene)-2-(4,6-diisopropyl-1,3-dihydro-isobenzofuran-5-yl)acetamide], with 5 to 30 µM.
With `CCc1cc(OC(F)F)cc(C(C)C)c1CC(=O)N=S(N)(=O)c1sc(C(C)(C)O)cc1F` (single isomer, unassigned) [Example 79, (R)- or (S)-2-(4-(difluoromethoxy)-2-ethyl-6-isopropylphenyl)-N-(3-fluoro-5-(2-hydroxypropan-2-yl)thiophen-2-ylsulfonimidoyl)acetamide], the IC50 was 5 to 30 µM.
On the same count and under the same terms, then `CCc1c2c(cc(C(C)C)c1CC(=O)N=S(N)(=O)c1cc(C(C)(C)O)cs1)COC2` (single isomer, unassigned) [Example 294, (S) or (R)-N-(amino(4-(2-hydroxypropan-2-yl)thiophen-2-yl)(oxo)-λ^6-sulfaneylidene)-2-(4-ethyl-6-isopropyl-1,3-dihydroisobenzofuran-5-yl)acetamide], with 5 to 30 µM.
With `CC(C)c1cc(OC(F)F)cc(C(C)C)c1CC(=O)N=S(N)(=O)c1sc(C(C)(C)O)cc1F` (single isomer, unassigned) [Example 77, (R)- or (S)-(4-(difluoromethoxy)-2,6-diisopropylphenyl)-N-(3-fluoro-5-(2-hydroxypropan-2-yl)thiophen-2-ylsulfonimidoyl)acetamide], the half-maximal inhibitory concentration (IC50) was 1 to 5 µM.

The same assay, now with this note: Table B2; 2% fetal bovine serum; class symbols; read-out: hTHP-1 IC50 (Average IC50 of compounds in hTHP-1 assay).
With `CC(C)c1cc2c(c(C(C)C)c1CC(=O)N=S(N)(=O)c1ccn(CCO)n1)OC(F)(F)O2` (racemic) [Example 349, (R) and (S)—N-(amino(1-(2-hydroxyethyl)-1H-pyrazol-3-yl)(oxo)-λ^6-sulfaneylidene)-2-(2,2-difluoro-4,6-diisopropylbenzo[d][1,3]dioxol-5-yl)acetamide], the IC50 was 5 to 30 µM.
Take `CCn1cc(F)c(S(N)(=O)=NC(=O)Cc2c(C(C)C)cc3c(c2C(C)C)OC(F)(F)O3)n1` (single isomer, unassigned) [Example 401, (S) or (R)-N-(amino(1-ethyl-4-fluoro-1H-pyrazol-3-yl)(oxo)-λ^6-sulfaneylidene)-2-(2,2-difluoro-4,6-diisopropylbenzo[d][1,3]dioxol-5-yl)acetamide]: the IC50 fell in the range of 5 to 30 µM.
Still for that read-out and setting: then `CCn1cc(F)c(S(N)(=O)=NC(=O)Cc2c(C(C)C)cc3c(c2C(C)C)OC(F)(F)O3)n1` (single isomer, unassigned) [Example 400, (R) or (S)-N-(amino(1-ethyl-4-fluoro-1H-pyrazol-3-yl)(oxo)-λ^6-sulfaneylidene)-2-(2,2-difluoro-4,6-diisopropylbenzo[d][1,3]dioxol-5-yl)acetamide], with 0.2 to 1 µM.

These data come from US20230059136A1, “THE COMPOUNDS AND COMPOSITIONS FOR TREATING CONDITIONS ASSOCIATED WITH NLRP ACTIVITY” (Novartis AG, priority 2018, published 2023).
